This is an account of results in US9399032B2, “Methods and compositions for treating degenerative and ischemic disorders” (The General Hospital Corporation, priority 2009, dated 2016).

Counter-ions that a name gives are not always drawn.

human H 1 receptor, sequence (P35367 whole entry): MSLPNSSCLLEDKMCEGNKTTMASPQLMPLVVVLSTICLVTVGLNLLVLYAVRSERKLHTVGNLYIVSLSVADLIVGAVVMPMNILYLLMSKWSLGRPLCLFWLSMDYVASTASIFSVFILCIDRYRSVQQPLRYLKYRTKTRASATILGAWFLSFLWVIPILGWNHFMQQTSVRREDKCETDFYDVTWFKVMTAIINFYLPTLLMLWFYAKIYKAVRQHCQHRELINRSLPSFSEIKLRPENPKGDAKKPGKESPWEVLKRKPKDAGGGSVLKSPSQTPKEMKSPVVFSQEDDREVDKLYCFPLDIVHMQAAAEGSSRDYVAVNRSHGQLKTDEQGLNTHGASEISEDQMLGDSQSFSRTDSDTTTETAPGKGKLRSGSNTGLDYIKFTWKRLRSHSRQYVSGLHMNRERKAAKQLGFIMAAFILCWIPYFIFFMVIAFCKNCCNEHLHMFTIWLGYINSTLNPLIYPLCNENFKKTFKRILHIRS

The first assay concerns purified recombinant PCYT2. In words: PCYT2 enzyme assay in vitro. It is filed as biochemical. The conditions noted are these: 50-1000 μM meclizine or 50-600 μM S-meclizine. On the procedure: FIGS. 16 C-D are line graphs showing that PCYT2 (CTP:phosphoethanolamine cytidylyltransferase 2) is a target of meclizine (16C) and S-meclizine (16D). PCYT2 enzyme assays were carried out in vitro with purified recombinant PCYT2 in the presence of 50-1000 μM meclizine or 50-600 μM of S-meclizine.
CTP:Phosphoethanolamine Cytidylyltransferase (PCYT2) catalyzes the formation of CDP-ethanolamine, which is often the rate regulatory step in the PE-Kennedy pathway. See, e.g., Fullerton et al., J Biol Chem 18; 284(38):25704-13 (2009). To determine whether meclizine affects PCYT2 activity, PCYT2 (CTP:phosphoethanolamine cytidylyltransferase 2) enzyme assays were carried out in vitro with purified recombinant PCYT2 in the presence of 50-1000 μM meclizine or 50-600 μM of S-meclizine. For additional details see Zhu et al., J Lipid Res 49: 2197 (2008).
On to `Cc1cccc(CN2CCN([C@@H](c3ccccc3)c3ccc(Cl)cc3)CC2)c1` [S-meclizine, S-Meclizine], for which the “PCYT2 binding and inhibition” value is “binD to, and inhibit”.

For the next assay, the system named is Adult rat ventricular cardiomyocytes. In words: Simulated ischemia-reperfusion injury in isolated cardiomyocytes. It is filed as cell-based. As to conditions: 60 minutes ischemia, 30 minutes reperfusion. As for the experimental part:
The ability of meclizine to protect isolated cardiomyocytes and isolated hearts from ischemic injury was investigated as follows Adult rat ventricular cardiomyocytes were isolated by endotoxin-free collagenase perfusion, and the simulated ischemia-reperfusion injury was performed as previously described (Wojtovich and Brookes, Basic Res. Cardiol., 104:121-129 (2009)). Control cells were exposed to DMSO for 20 minutes. Test cells were exposed to either vehicle or doses of meclizine for 20 minutes, which was washed out before being subjected to ischemia for 60 minutes followed by reperfusion for 30 minutes under normoxic conditions in normoxic glucose-replete buffer at pH 7.4. Cell viability was assayed by Trypan blue exclusion. VO2 was assessed by isolating mitochondria and measuring both respirating cells and mitochondria using a Clark oxygen electrode (Wojtovich, supra).
Regarding `CN1[C@@H]2CC[C@H]1C[C@@H](OC(=O)C(CO)c1ccccc1)C2` (stereo partly drawn) [atropine], the “protection of cardiomyocytes against I/R (cell viability, Trypan blue)” value is given as “not observed”.
On the same count and under the same terms, as for `COc1ccc(CN(CCN(C)C)c2ccccn2)cc1` [pyrilamine], the entry is “not observed”; as for `CN1[C@@H]2C[C@@H](OC(=O)[C@H](CO)c3ccccc3)C[C@H]1[C@@H]1O[C@@H]12` [scopolamine], “not observed”; as for `CN(C)CCC(c1ccccc1)c1ccccn1` (stereo not drawn) [pheniramine], “not observed”.

Another assay deals with C2C12 myotubes. In words: [3H]-2-deoxyglucose uptake. As to conditions: 50 micromolar, four hours. The format is cell-based. On the procedure:
Fully differentiated C2C12 myotubes were subjected to a glucose uptake protocol, as follows. Briefly, C2C12 myotube cells were incubated for four hours in serum-free media containing either 0.1% DMSO as a control, 50 micromolar meclizine, 50 micromolar S-meclizine, or 2 mM metformin. Cells were subsequently incubated for thirty minutes in serum and glucose free buffer and then transitioned to buffer containing [3H]-2-deoxyglucose for five minutes. After multiple wash steps, cells were lysed and the lysate was subjected to scintillation counting to quantify uptake. Data were prepared as raw counts per minute, which is proportional to 2-deoxyglucose uptake.
Consider `Cc1cccc(CN2CCN([C@@H](c3ccccc3)c3ccc(Cl)cc3)CC2)c1` [S-meclizine, S-Meclizine], for which the basal glucose uptake entry is listed as “promoted increased basal glucose uptake”.

The test system of another assay is MCH58 fibroblasts. In words: Glucose versus galactose cell growth screen (metabolic state-dependent lethality).
Conditions: not given
Take `C[CH2][Hg][S]c1ccccc1C(=O)[O-].[Na+]` [thimerosal]: the “Sglu/gal (log10 fold change) Score” value is on record as −0.22.

Staying with this assay, now noted: approximately 10 μM compound, 72 hours; log10 fold change of normalized cell number in glucose versus galactose.
In the case of `COc1cc2c(cc1OC)[C@@H]1C(=O)c3ccc4oc(C(C)C)cc4c3O[C@@H]1CO2` [Isorotenone], the “Sglu/gal (log10 fold change) Score” value was 0.71.
On the same count and under the same terms, as for `CC(=O)O[C@@H]1C[C@@]2(C)[C@H](c3ccoc3)C[C@H]3O[C@]32[C@]2(C)C(=O)C(O)=C3C(C)(C)C(=O)C=C[C@]3(C)[C@@H]12` [anthothecol], the figure is −0.30; as for `CC[C@@]1(O)C[C@H](O[C@H]2C[C@H](N(C)C)[C@H](O)[C@H](C)O2)c2c(cc3c(c2O)C(=O)c2c(O)ccc(O)c2C3=O)[C@H]1C(=O)OC` [pyrromycin], −0.30.
Same read-out and setting: the same measure for `C=C1C(=O)O[C@@H]2C[C@@]3(C)CCC[C@H](C)C3=C[C@H]12` [helenine]: −0.22; for `CC1(C)C(=O)C=C[C@@]2(C)C1=C(O)C(=O)[C@]1(C)[C@@H]2CC[C@@]2(C)[C@H](c3ccoc3)C[C@H]3O[C@]321` [cedrelone]: −0.22; for `CC(C)=CCCC1(C)C=Cc2c(O)c3c(c(CC=C(C)C)c2O1)OC12C(=CC4CC1C(C)(C)OC2(C/C=C(/C)C(=O)O)C4O)C3=O` (stereo not drawn) [dihydrogambogic acid]: −0.32.
On the same count and under the same terms, as for `O=c1[nH]c(=O)n([C@H]2C[C@H](O)[C@@H](CO)O2)cc1C(F)(F)F` [Trifluridine], the figure is −0.26.
On to `CC[C@@]1(O)C[C@H](O[C@H]2C[C@H](N(C)C)[C@H](O)[C@H](C)O2)c2c(cc3c(c2O)C(=O)c2c(O)cccc2C3=O)[C@H]1C(=O)OC` [aklavine hydrochloride], for which the “Sglu/gal (log10 fold change) Score” value is reported as −0.33.
Consider Nonoxynol-9, for which the “Sglu/gal (log10 fold change) Score” value is given as 0.46.
Regarding `C[C@]12CC[C@H](O)C[C@H]1CC[C@@H]1[C@@H]2[C@H](O)C[C@]2(C)[C@@H](C3=CC(=O)OC3)CC[C@]12O` [sarmentogenin], the “Sglu/gal (log10 fold change) Score” value is on record as −0.21.
Same read-out and setting: the same measure for `CO[C@H]1[C@H](O)[C@H](O[C@H]2CC[C@@]3(C)[C@H](CC[C@@H]4[C@@H]3CC[C@]3(C)[C@@H](C5=CC(=O)OC5)CC[C@]43O)C2)O[C@@H](C)[C@@H]1O` [neriifolin]: −0.21; for `COc1c(-c2coc3cc4c(cc3c2=O)CC(O)C(C)(C)O4)ccc2c1C=CC(C)(C)O2` (stereo not drawn) [Mundulone]: 0.50; for `C[C@@]12C(=O)OC(=O)[C@]1(C)[C@H]1CC[C@@H]2O1` [cantharidin]: −0.33.
`CN(C)CCC=C1c2ccccc2C=Cc2ccccc21` [Cyclobenzaprine hydrochloride]: the “Sglu/gal (log10 fold change) Score” value was 0.13.
On the same count and under the same terms, as for `CCCCCCc1ccc(O)cc1O.Nc1c2ccccc2nc2ccccc12` [acrisorcin], the figure is −0.36; as for `CC(C)c1c(O)ccc2c1CCC1C(C)(C(=O)O)CCCC21C` (stereo not drawn) [Totarol-19-carboxylic acid], 0.80.
Turning to `[H]/N=C(\N/C(=N/[H])NCCCCCCNC(=N)NC(=N)Nc1ccc(Cl)cc1)Nc1ccc(Cl)cc1` [Chlorhexidine], the “Sglu/gal (log10 fold change) Score” value came out at 0.16.
On the same count and under the same terms, as for `COc1cc2c(cc1OC)C1C(=O)c3c(cc4c(c3O)C=CC(C)(C)O4)OC1CO2` (stereo not drawn) [Beta-toxicarol], the figure is 0.82.
As for `C[n+]1c2cc(N)ccc2cc2ccc(N)cc21.[Cl-]` [acriflavinium hydrochloride], the “Sglu/gal (log10 fold change) Score” value is reported as −0.29.
Still for that read-out and setting: as for `CCCCc1ccc2[nH]c(NC(=O)OC)nc2c1` [Parbendazole], the figure is −0.24.
On the same count and under the same terms, the same measure for `COc1ccc(Cc2nccc3cc(OC)c(OC)cc23)cc1OC` [Papaverine hydrochloride]: 0.30.
Same read-out and setting: the same measure for `CN(C/C=C/c1ccccc1)Cc1cccc2ccccc12` [Naftifine hydrochloride]: 0.19; for `COc1cc2c(cc1OC)[C@@H]1C(=O)c3ccc(OC)c(CC=C(C)C)c3O[C@@H]1CO2` [Rotenonic acid, methyl ether]: 0.34.

For another assay, the system named is isolated mitochondria. In words: Effect of phosphoethanolamine on uncoupled respiration of isolated mitochondria. As to conditions: ~1 min incubation, 1 μM CCCP. The format is biochemical. On the procedure:
Mitochondria were isolated from C57BL/6 mouse kidneys by differential centrifugation and resuspended in experimental buffer to a final concentration of 0.15 mg/ml. Mootha et al., Am J Physiol 272:H769 (1997). State 2 respiration was initiated with the addition of 2.5 mM glutamate and 2.5 mM malate. State 3 respiration was initiated with the addition of 50 nmoles ADP. […] O2 consumption was monitored with a Fiber Optic Oxygen sensor probe from Ocean Optics, and NADH (endogenous, 370±7 nm excitation, 440±4 nm emission) and membrane potential (1.25 μM TMRM, 546±7 nm excitation, 590±4 nm emission) were measured with a Perkin-Elmer LS50B fluorimeter. A representative trace is shown from 6 independent experiments. 1M stock of phosphoethanolamine (Sigma P0503) was made in sterile water and pH was adjusted to 7.4 by 1N potassium hydroxide solution.
The upregulation of phosphoethanolamine was confirmed by orthogonal chromatography, as well as via ^31P-NMR. […] Previous studies have shown that phosphoethanolamine can be elevated in tumor cells, and that ethanolamine and PEA can directly silence mitochondrial OXPHOS. Zhu et al., J Lipid Res 49: 2197 (2008); and Modica-Napolitano et al., Biol Psychiatry 55:273 (2004). […]
As to `NCCOP(=O)(O)O` [PEA, phosphoethanolamine], the “uncoupler-stimulated respiration in isolated mitochondria” value is “blocks uncoupler-stimulated respiration”.

In a further assay the target is human H 1 receptor (Homo sapiens, UniProt P35367). In words: H1 receptor competitive binding assay with [3H]pyrilamine. The conditions noted are these: 3 nM [3H]pyrilamine. As for the experimental part:
The ability of each enantiomer to bind to the H1 receptor was evaluated using a competitive binding experiment with the racemate. In vitro binding of R-meclizine (R-Mec) and S-meclizine (S-Mec) to human H 1 receptor was determined by competitive binding assays in the presence of 3 nM [3H]pyrilamine. Non-specific binding was determined in the presence of excess (1 μM) unlabeled Pyrilamine. IC50 were determined by non-linear regression analysis of the competition curves.
Regarding `Cc1cccc(CN2CCN([C@@H](c3ccccc3)c3ccc(Cl)cc3)CC2)c1` [S-meclizine, S-Meclizine], the “affinity on the H1 receptor” value is reported as “much weaker affinity”.
On the same count and under the same terms, as for `Cc1cccc(CN2CCN([C@H](c3ccccc3)c3ccc(Cl)cc3)CC2)c1` [R-meclizine], the entry is “high affinity”.

A further assay concerns STHdhQ111/111 striatal cells. In words: Viability of mutant huntingtin striatal cells after serum withdrawal (CellTiter-Glo). It is filed as cell-based, murine. The conditions noted are these: serum free media, 24 hours. As for the experimental part: Wherever indicated, mutant (STHdh^Q111/111) striatal cells were grown in serum free media for ˜24 hours before ATP measurement. Luminescence was measured in DTX880 multimode detector. Multiple concentrations (between 100 μM and 0.5 μM) of rotenone, antimycin, oligomycin, meclizine, hydroxyzine (Spectrum chemical), thiethylperazine (Prestwick), cyproheptadine (Sigma), pyrilamine (Spectrum chemical), tripelennamine (Spectrum chemical), diphenhydramine (Spectrum chemical), clemastine (Prestwick), bromopheniramine (Spectrum chemical), pheniramine (Spectrum chemical), promethazine (MSDiscovery 01500510), atropine (Sigma), and scopolamine (Sigma) were tested for their protective effect on STHdh^Q111/111 cells in serum free media. The dose which conferred maximum protection is shown. Luminescence was measured in DTX880 multimode detector.
Although it is not necessary to understand the mechanism of an invention, it is believed that the observed cell survival may be due to suppressed apoptosis based on caspase 3 and 7 cleavage. Improved cell viability was confirmed by microscopy.
On the technique in general: ATP-based viability assays read luminescence as a measure of living cells.
Take `Cc1cccc(CN2CCN([C@@H](c3ccccc3)c3ccc(Cl)cc3)CC2)c1` [S-meclizine, S-Meclizine]: the “protection of STHdhQ111/111 cells after serum withdrawal” value is “is protective”.

The next assay relates to AMPK. In words: Western blot detection of AMPK phosphorylation. It is filed as cell-based. As to conditions: C2C12 myotubes, 24 hours of treatment. On the procedure:
The ability of meclizine, S-meclizine and R-meclizine to activate AMPK in C2C12 myotubes was also evaluated using Western blot detection of AMPK phosphorylation in C2C12 myotubes following 24 hours of treatment with R-meclizine (R-Mec), S-meclizine (S-Mec) and the racemic mixture (Rac-Mec).
As to `Cc1cccc(CN2CCN([C@@H](c3ccccc3)c3ccc(Cl)cc3)CC2)c1` [S-meclizine, S-Meclizine], the “AMPK activation (phosphorylation)” value is given as “activate AMPK”.
As to `Cc1cccc(CN2CCN([C@H](c3ccccc3)c3ccc(Cl)cc3)CC2)c1` [R-meclizine], the “AMPK activation (phosphorylation)” value is “activate AMPK”.
